Our source for the IC50 values is patent US9604989B2, “Imidazopyridazines as Akt kinase inhibitors” (Bayer Intellectual Property GmbH, priority 2011, dated 2017).

A value given as a limit tells only on which side of the number the result lay.

In test [1] the target is His-tagged human recombinant kinase full-length Akt1 (Homo sapiens (Human), UniProt P31749). Put plainly: Akt1 kinase assay (Akt1 TR-FRET assay). Conditions: 10 μM ATP, 60 min at 22° C., read-out: Akt1 median IC50. The test is classed as biochemical. On the technique in general: TR-FRET usually uses a lanthanide donor and a delayed reading to cut background.
Chain of His-tagged human recombinant kinase full-length Akt1 (P31749 whole entry): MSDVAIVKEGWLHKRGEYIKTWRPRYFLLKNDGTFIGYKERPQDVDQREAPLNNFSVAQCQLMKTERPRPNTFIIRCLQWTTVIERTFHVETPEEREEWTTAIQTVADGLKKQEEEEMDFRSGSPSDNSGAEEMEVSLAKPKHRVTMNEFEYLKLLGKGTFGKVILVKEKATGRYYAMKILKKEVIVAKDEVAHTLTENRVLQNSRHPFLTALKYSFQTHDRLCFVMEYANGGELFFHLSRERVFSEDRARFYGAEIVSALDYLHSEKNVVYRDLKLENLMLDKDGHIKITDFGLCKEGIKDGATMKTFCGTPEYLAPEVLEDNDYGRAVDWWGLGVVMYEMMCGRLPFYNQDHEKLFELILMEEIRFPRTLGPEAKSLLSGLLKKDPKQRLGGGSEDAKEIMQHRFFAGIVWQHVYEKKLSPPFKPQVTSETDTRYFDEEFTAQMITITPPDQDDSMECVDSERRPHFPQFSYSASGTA
Text: Biological Assay 1.0: Akt1 Kinase Assay
Akt1 inhibitory activity of compounds of the present invention was quantified employing the Akt1 TR-FRET assay as described in the following paragraphs.
His-tagged human recombinant kinase full-length Akt1 expressed in insect cells was purchased form Invitrogen (part number PV 3599). As substrate for the kinase reaction the biotinylated peptide biotin-Ahx-[sequence] (C-terminus in amide form) was used which can be purchased e.g. from the company Biosynthan GmbH (Berlin-Buch, Germany).
For the assay 50 nl of a 100 fold concentrated solution of the test compound in DMSO was pipetted into a black low volume 384 well microtiter plate (Greiner Bio-One, Frickenhausen, Germany), 2 μl of a solution of Akt1 in assay buffer [50 mM TRIS/HCl pH 7.5, 5 mM MgCl2, 1 mM dithiothreitol, 0.02% (v/v) Triton X-100 (Sigma)] were added and the mixture was incubated for 15 min at 22° C. to allow pre-binding of the test compounds to the enzyme before the start of the kinase reaction. Then the kinase reaction was started by the addition of 3 μl of a solution of adenosine-tri-phosphate (ATP, 16.7 μM=>final conc. in the 5 μl assay volume is 10 μM) and substrate (1.67 μM=>final conc. in the 5 μl assay volume is 1 μM) in assay buffer and the resulting mixture was incubated for a reaction time of 60 min at 22° C. The concentration of Akt1 in the assay was adjusted depending of the activity of the enzyme lot and was chosen appropriate to have the assay in the linear range, typical enzyme concentrations were in the range of about 0.05 ng/μl (final conc. in the 5 μl assay volume). The reaction was stopped by the addition of 5 μl of a solution of HTRF detection reagents (200 nM streptavidine-XL665 [Cisbio] and 1.5 nM anti-phosho-Serine antibody [Millipore, cat. #35-001] and 0.75 nM LANCE Eu-W 1024 labeled anti-mouse IgG antibody [Perkin Elmer]) in an aqueous EDTA-solution (100 mM EDTA, 0.1% (w/v) bovine serum albumin in 50 mM HEPES/NaOH pH 7.5). The resulting mixture was incubated 1 h at 22° C. to allow the binding of the biotinylated phosphorylated peptide to the streptavidine-XL665 and the antibodies. Subsequently the amount of phosphorylated substrate was evaluated by measurement of the resonance energy transfer from the anti-mouse-IgG-Eu-Chelate to the streptavidine-XL665. Therefore, the fluorescence emissions at 620 nm and 665 nm after excitation at 350 nm was measured in a HTRF reader, e.g. a Rubystar (BMG Labtechnologies, Offenburg, Germany) or a Viewlux (Perkin-Elmer). The ratio of the emissions at 665 nm and at 622 nm was taken as the measure for the amount of phosphorylated substrate.
The target in test [2] is His-tagged human recombinant kinase full-length Akt2 (Homo sapiens (Human), UniProt P31751). The experiment in a line: Akt2 kinase assay (Akt2 TR-FRET assay). The test is classed as biochemical. The following applies: 10 μM ATP, 60 min at 22° C., read-out: Akt2 median IC50.
Chain of His-tagged human recombinant kinase full-length Akt2 (P31751 whole entry): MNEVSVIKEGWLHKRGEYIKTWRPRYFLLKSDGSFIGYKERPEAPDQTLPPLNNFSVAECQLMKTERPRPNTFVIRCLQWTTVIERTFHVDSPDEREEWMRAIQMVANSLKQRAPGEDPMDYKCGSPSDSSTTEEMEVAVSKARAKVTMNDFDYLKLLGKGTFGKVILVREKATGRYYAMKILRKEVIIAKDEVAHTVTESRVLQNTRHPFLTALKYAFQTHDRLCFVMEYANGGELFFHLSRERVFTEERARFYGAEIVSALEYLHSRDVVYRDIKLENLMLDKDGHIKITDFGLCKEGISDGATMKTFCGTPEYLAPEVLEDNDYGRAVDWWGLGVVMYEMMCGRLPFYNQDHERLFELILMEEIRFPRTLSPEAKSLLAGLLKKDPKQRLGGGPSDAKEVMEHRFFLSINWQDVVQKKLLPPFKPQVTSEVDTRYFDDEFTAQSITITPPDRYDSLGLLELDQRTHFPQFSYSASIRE
The test system of the next test is phospho-AKT at S473. Put plainly: Cellular p-AKT1/2/3-S473 assay in KPL-4 cells. Format: cell-based. The following applies: Homo sapiens, KPL4; KPL-4 breast tumour cell line, compound treatment 2 hours; read-out: pAKT-S473 median IC50.
Another test relates to p-4E-BP1 at T70. Put plainly: Cellular p-4E-BP1-T70 assay in KPL-4 cells. Format: cell-based. The following applies: Homo sapiens, KPL4; KPL-4 breast tumour cell line, compound treatment 2 hours; read-out: P4EBP1-T70 median IC50.
The subject of test [3] is KPL-4 breast cancer cell line. Put plainly: Tumor cell proliferation assay (CellTiter-Glo), KPL-4. The test is classed as cell-based. Conditions: Homo sapiens, KPL4, 72 h drug exposure, read-out: KLP-4 median IC50.
Experimental: (§1) Biological Assay 4.0: Tumor Cell Proliferation Assays
(§2) Compounds were tested in a cell-based assay that measures the capacity of the compounds to inhibit tumour cell proliferation following a 72 h drug exposure. Cell viability is determined using CellTiter-Glow® (CTG, Promega, cat#G7571/2/3). The CellTiter-Glo® Luminescent Cell Viability Assay is a homogeneous method to determine the number of viable cells in culture.
(§3) Detection is based on using the luciferase reaction to measure the amount of ATP from viable cells. The amount of ATP in cells correlates with cell viability. Within minutes after a loss of membrane integrity, cells lose the ability to synthesize ATP, and endogenous ATPases destroy any remaining ATP; thus the levels of ATP fall precipitously.
(§4) For each cell line assayed, cells were plated onto a separate plate for determination of fluorescence at t=0 hour and t=72 hour time points. Following overnight incubation at 37° C., chemiluminescence values for the t=0 samples were determined after adding 10 μl medium and 100 μl CTG solution according to manufacture protocol. Plates for the t=72 hour time points were treated with compounds diluted into growth medium at ten times final concentration added in 10 μL to the cell culture plate. Cells were then incubated for 72 hours at 37° C. Chemiluminescence values for the t=72 hour samples were determined. […] Experiments were controlled using a reference compound as standard.
The test system of test [4] is MCF-7 breast tumour cell line. The experiment in a line: Tumor cell proliferation assay (CellTiter-Glo), MCF-7. Format: cell-based. Conditions: Homo sapiens, MCF7, 72 h drug exposure, read-out: MCF-7 median IC50. For orientation: Cellular ATP, detected with luciferase, serves as a proxy for viable cell number.
Experimental: as §1, §2, §3, §4

The IC50 is the midpoint of a concentration-inhibition curve.

Experimental for p-4E-BP1 at T70: (§5) The molecular mechanism of action was investigated in a set of experiments to assess the inhibition of the PI3K-AKT-mTOR pathway in responsive cell lines such as KPL-4 breast tumour cell line (PIK3CA^H1047R, HER2^O/E and hormone independent). The phospho-substrates of PI3K-AKT-mTOR axis were used as the read-outs to reflect pathway inhibition. Cells were seeded at 60-80% confluency per well in 96-well cell culture plates. After overnight incubation at 37° C. 5% CO2, cells were treated with compounds and vehicle at 37° C. for 2 hours. […] All measurements where at least done in duplicates and confirmed by independent repetition.
Experimental for phospho-AKT at S473: as §5
Alternatively pAKT-S473 was measured using the “Akt Duplex” of the MULTI-SPOT® Assay System (Fa. Meso Scale Discovery, Cat#N41100B-1) following manufacturers instructions. Each assay used 20 μg of protein extract and measured total AKT and p-AKT content simultaneously in one well. All measurements where at least done in duplicates and confirmed by independent repetition. Values for P-AKT are expressed as percentage of P-AKT level compared to total-AKT content of the extracts.

For the compound `COC(=O)c1cc(-c2cc[nH]n2)c2nc(-c3ccc(C4(N)CCC4)cc3)c(-c3ccccc3)n2n1` [Example 56, Methyl 2-[4-(1-aminocyclobutyl)phenyl]-3-phenyl-8-(1H-pyrazol-3-yl)-imidazo[1,2-b]pyridazine-6-carboxylate], the half-inhibitory concentration (IC50) in test [1] came out at 6.6 nM; in test [2], 16 nM; with phospho-AKT at S473 it was 570 nM; in the test with p-4E-BP1 at T70 it was 360 nM; in test [3], 8200 nM; in test [4], 1100 nM.
Regarding `COC(=O)CCc1ccnn2c(-c3ccccc3)c(-c3ccc(C4(N)CCC4)cc3)nc12` [Example 72, Methyl 3-{2-[4-(1-aminocyclobutyl)phenyl]-3-phenylimidazo[1,2-b]pyridazin-8-yl}propanoate], the IC50 in test [1] came out at 310 nM; in test [2], 580 nM; in the test with phospho-AKT at S473, 1000 nM; in the test on p-4E-BP1 at T70, 590 nM; in test [3], 2200 nM; in test [4], 3000 nM.
Regarding `Cc1c(Cl)nn2c(-c3ccccc3)c(-c3ccc(C4(N)CCC4)cc3)nc2c1C` [Example 50, 1-[4-(6-Chloro-7,8-dimethyl-3-phenylimidazo[1,2-b]pyridazin-2-yl)phenyl]-cyclobutanamine], the IC50 turned out to be 44 nM in test [1]; 27 nM in test [2]; 450 nM in the test on phospho-AKT at S473; 2000 nM with p-4E-BP1 at T70; 1700 nM in test [3]; 1800 nM in test [4].
`CCOC(=O)c1ccc2nc(-c3ccc(C4(N)CCC4)cc3)c(-c3ccccc3)n2n1` [Example 4, Ethyl 2-[4-(1-aminocyclobutyl)phenyl]-3-phenylimidazo[1,2-b]pyridazine-6-carboxylate]: the IC50 in test [1] amounted to 85 nM; in test [2] it was 190 nM; in the test on phospho-AKT at S473, 610 nM; in the test with p-4E-BP1 at T70, 2400 nM; in test [3], 2400 nM; in test [4], 1800 nM.
For the compound `CCOc1cc(C(=O)OC)nn2c(-c3ccccc3)c(-c3ccc(C4(N)CCC4)cc3)nc12` [Example 57, Methyl 2-[4-(1-aminocyclobutyl)phenyl]-8-ethoxy-3-phenylimidazo[1,2-b]pyridazine-6-carboxylate], the IC50 in test [1] was found to be 25 nM; in test [2] it was 29 nM; in the test with phospho-AKT at S473, 250 nM; in the test with p-4E-BP1 at T70, 1800 nM; in test [3] it was 9400 nM; in test [4], 2100 nM.
As to `NC1(c2ccc(-c3nc4c(-c5cc[nH]n5)cc(C(=O)NCCO)nn4c3-c3ccccc3)cc2)CCC1` [Example 71, 2-[4-(1-Aminocyclobutyl)phenyl]-N-(2-hydroxyethyl)-3-phenyl-8-(1H-pyrazol-3-yl)imidazo[1,2-b]pyridazine-6-carboxamide], the 50% inhibitory concentration (IC50) was determined as 11 nM in test [1]; 20 nM in test [2]; 92 nM in the test with phospho-AKT at S473; 10000 nM in the test with p-4E-BP1 at T70; 2000 nM in test [3]; 780 nM in test [4].
Consider `NC1(c2ccc(-c3nc4cccnn4c3-c3ccccc3)cc2)CCC1` [Example 25, 1-[4-(3-Phenylimidazo[1,2-b]pyridazin-2-yl)phenyl]cyclobutanamine], for which the IC50 in test [1] came to 190 nM; in test [2] it was 160 nM; in the test with phospho-AKT at S473 it was 90 nM; in the test on p-4E-BP1 at T70, 550 nM; in test [3] it was 2000 nM; in test [4], 1900 nM.
In the case of `C=Cc1cc(-c2cc[nH]n2)c2nc(-c3ccc(C4(N)CCC4)cc3)c(-c3ccccc3)n2n1` [Example 20, 1-{4-[3-Phenyl-8-(1H-pyrazol-3-yl)-6-vinylimidazo [1,2-b]pyridazin-2-yl]phenyl}cyclobutanamine], the IC50 in test [1] was found to be 120 nM; in test [2], 170 nM; with phospho-AKT at S473 it was 520 nM; in the test on p-4E-BP1 at T70 it was 1500 nM; in test [3] it was 2600 nM; in test [4], 1800 nM.
In the case of `COC(=O)COc1ccc2nc(-c3ccc(C4(N)CCC4)cc3)c(-c3ccccc3)n2n1` [Example 80, Methyl ({2-[4-(1-aminocyclobutyl)phenyl]-3-phenylimidazo[1,2-b]pyridazin-6-yl}oxy)acetate], the IC50 in test [1] was 96 nM; in test [2] it was 610 nM; with phospho-AKT at S473 it was 190 nM; in the test on p-4E-BP1 at T70 it was 9800 nM; in test [3], 10000 nM; in test [4] it was 10000 nM.
For the compound `Cc1c(C(N)=O)nn2c(-c3ccccc3)c(-c3ccc(C4(N)CCC4)cc3)nc2c1C` [Example 52, 2-[4-(1-Aminocyclobutyl)phenyl]-7,8-dimethyl-3-phenylimidazo[1,2-b]-pyridazine-6-carboxamide], the IC50 in test [1] turned out to be 26 nM; in test [2] it was 15 nM; in the test on phospho-AKT at S473 it was 2.1 nM; in the test on p-4E-BP1 at T70, 9.9 nM; in test [3], 140 nM; in test [4], 110 nM.
For the compound `COC(=O)c1nn2c(-c3ccccc3)c(-c3ccc(C4(N)CCC4)cc3)nc2c(C)c1C` [Example 51, Methyl 2-[4-(1-aminocyclobutyl)phenyl]-7,8-dimethyl-3-phenylimidazo[1,2-b]pyridazine-6-carboxylate], the IC50 in test [1] came out at 42 nM; in test [2], 81 nM; in the test on phospho-AKT at S473 it was 590 nM; with p-4E-BP1 at T70, 1200 nM; in test [3], 7000 nM; in test [4] it was 1400 nM.
In the case of `CCOc1cc(OCC)c2nc(-c3ccc(C4(N)CCC4)cc3)c(-c3ccccc3)n2n1` [Example 76, 1-[4-(6,8-Diethoxy-3-phenylimidazo[1,2-b]pyridazin-2-yl)phenyl]cyclobutanamine], the IC50 worked out at 11 nM in test [1]; 23 nM in test [2]; 120 nM in the test on phospho-AKT at S473; 940 nM with p-4E-BP1 at T70; 1700 nM in test [3]; 940 nM in test [4].
Turning to `Cn1nccc1-c1cc(Cl)nn2c(-c3ccccc3)c(-c3ccc(C4(N)CCC4)cc3)nc12` [Example 23, 1-{4-[6-Chloro-8-(1-methyl-1H-pyrazol-5-yl)-3-phenylimidazo[1,2-b]pyridazin-2-yl]phenyl} cyclobutanamine], the IC50 worked out at 1200 nM in test [1]; 190 nM in test [2]; 1400 nM in the test on phospho-AKT at S473; 2900 nM in the test with p-4E-BP1 at T70; 2200 nM in test [3]; 2100 nM in test [4].
Regarding `CNC(=O)c1ccnn2c(-c3ccccc3)c(-c3ccc(C4(N)CCC4)cc3)nc12` [Example 63, 2-[4-(1-Aminocyclobutyl)phenyl]-N-methyl-3-phenylimidazo[1,2-b]pyridazine-8-carboxamide], the IC50 in test [1] was 46 nM; in test [2], 120 nM; with phospho-AKT at S473, 3.8 nM; in the test on p-4E-BP1 at T70, 0.3 nM; in test [3] it was 1600 nM; in test [4], 760 nM.
For `CS(=O)(=O)Nc1ccc2nc(-c3ccc(C4(N)CCC4)cc3)c(-c3ccccc3)n2n1` [Example 45, N-{2-[4-(1-Aminocyclobutyl)phenyl]-3-phenylimidazo[1,2-b]pyridazin-6-yl} methanesulfonamide], the half-maximal inhibitory concentration (IC50) in test [1] was 1200 nM; in test [2], 6600 nM; in the test with phospho-AKT at S473, greater than 10000 nM; in the test on p-4E-BP1 at T70 it was greater than 10000 nM; in test [3], greater than 10000 nM; in test [4], greater than 10000 nM.
